Experimental data published in patent US8389503B2, “Steroidal antitubercular compounds” (priority 2011, dated 2013).
Values after ≈ are worked out from the molar mass of the structure shown.

How the values were obtained:
[1] = system: Mycobacterium tuberculosis H37Rv (ATCC 27294); assay: Primary screen (dose response), Microplate Alamar Blue Assay (MABA), Level-I antituberculosis assay; assay type: cell-based; settings: M. tuberculosis H37Rv, BACTEC 12B medium, concentration reducing fluorescence 90% relative to controls
Experimental: Primary Screen (Dose Response): Determination of a 90% Inhibitory Concentration (IC90). The initial screen is conducted against Mycobacterium tuberculosis H37Rv (ATCC 27294) in BACTEC 12B medium using the Microplate Alamar Blue Assay (MABA). Compounds are tested in ten 2-fold dilutions, typically from 100 μg/mL to 0.19 μg/mL. The IC90 is defined as the concentration effecting a reduction in fluorescence of 90% relative to controls. This value is determined from the dose-response curve using a curve-fitting program. Any IC90 value of ≦10 μg/mL is considered “Active” for antitubercular activity.

## CCCCCCOC(=O)c1ccc(OC2CC[C@@]3(C)C(=CC[C@H]4[C@@H]5CC[C@H]([C@H](C)C=C[C@@H](CC)C(C)C)[C@@]5(C)CC[C@@H]43)C2)cc1 (some centres unmarked) [Compound I, n-hexyl-p-stigmasteryloxy-benzoate]
[1]
  IC90 (90% inhibitory concentration): 6.25 µg/mL (≈ 10.1 µM)
VERO cells
  CC50 (mammalian cell cytotoxicity): 79.59 µg/mL (≈ 129 µM)
